Experiment: Dissolution of SN-38 in phosphate buffer pH 6.8
Type: physicochemical
Conditions: FIG. 4
Protocol: The kinetics of drug release can be determined by measuring the amount of drug released into phosphate buffer pH 6.8 at 37° C. via conventional high pressure liquid chromatography (HPLC).
The experiment was repeated in a solution at a higher pH, specifically pH 6.8. Briefly, the dissolution of SN-38 was measured either as SN-38 alone or from SN-38 containing micelles prepared as described in Example 2. The freeze dried cake produced in Example 2 was added to phosphate buffer pH 6.8 and the drug concentration was measured under the same conditions as the experiment using aqueous HCl at pH 1.2.

CCc1c2c(nc3ccc(O)cc13)-c1cc3c(c(=O)n1C2)COC(=O)[C@]3(O)CC [SN-38, 7-ethyl-10-hydroxy-camptothecin]
dissolution behaviour: rapidly precipitates from solution
